Values after ≈ are worked out from the molar mass of the structure shown.
Legend:
[1] = test system: vancomycin-resistant Enterococcus faecium (ATCC51559); experiment: microbe, parasite or virus in culture; format: cell-based; conditions: ATCC51559; vancomycin-resistant Enterococcus faecium; read-out: Antibacterial activity, VREFm (vancomycin-resistant EFm), MIC class
[2] = test system: Enterococcus faecalis (ATCC29212); experiment: Broth microdilution MIC assay, Enterococcus faecalis; format: cell-based; conditions: read-out: Antibacterial activity, EFs (Enterococcus faecalis), MIC class
[3] = test system: vancomycin-resistant Enterococcus faecalis (ATCC51575); experiment: microbe, parasite or virus in culture; format: cell-based; conditions: ATCC51575; vancomycin-resistant Enterococcus faecalis; read-out: Antibacterial activity, VREFs (vancomycin-resistant EFs), MIC class
[4] = test system: Enterococcus faecium (AGR15, ATCCBAA-2127); experiment: Broth microdilution MIC assay, Enterococcus faecium; format: cell-based; conditions: ATCCBAA2127, read-out: Antibacterial activity, EFm (Enterococcus faecium), MIC class
[5] = test system: MRSA (COL) resistant to triclosan; experiment: Broth microdilution MIC assay, triclosan-resistant MRSA; conditions: Staphylococcus aureus, read-out: Antibacterial activity, MRSA strains with additional resistance, T (triclosan), MIC class
[6] = test system: Staphylococcus aureus MSSA (Newman); experiment: Broth microdilution MIC assay, Staphylococcus aureus MSSA (Newman); format: cell-based; conditions: for Antibacterial activity Staphylococcus aureus (MSSA): MIC class score, MIC100, broth microdilution, Newman strain; for MIC: Staphylococcus aureus, read-out: Antibacterial activity, MSSA (Staphylococcus aureus MSSA), MIC class
[7] = test system: daptomycin-resistant Staphylococcus aureus (from MRSA COL); experiment: Broth microdilution MIC assay, daptomycin-resistant MRSA; format: cell-based; conditions: 24 h, read-out: Antibacterial activity, MRSA strains with additional resistance, D (daptomycin), MIC class
[8] = test system: platensimycin-resistant Staphylococcus aureus (from MRSA COL); experiment: Broth microdilution MIC assay, platensimycin-resistant MRSA; format: cell-based; conditions: 24 h, read-out: Antibacterial activity, MRSA strains with additional resistance, P (platensimycin), MIC class
[9] = test system: Staphylococcus aureus MRSA (COL); experiment: Broth microdilution MIC assay, Staphylococcus aureus MRSA (COL); format: cell-based; conditions: for Antibacterial activity Staphylococcus aureus (MRSA): MIC class score, MIC100, broth microdilution, COL strain
[10] = test system: Streptococcus pneumoniae (Chester, ATCC49619); experiment: Broth microdilution MIC assay, Streptococcus pneumoniae; format: cell-based; conditions: for MIC: Streptococcus pneumoniae, ATCC49619, read-out: Antibacterial activity, SP (Streptococcus pneumoniae), MIC class
[11] = test system: Staphylococcus epidermidis (PCI 1200, ATCC12228); experiment: Broth microdilution MIC assay, Staphylococcus epidermidis; format: cell-based; conditions: read-out: Antibacterial activity, SE (Staphylococcus epidermidis), MIC class
[12] = test system: moenomycin-resistant Staphylococcus aureus (from MRSA COL); experiment: Broth microdilution MIC assay, moenomycin-resistant MRSA; format: cell-based; conditions: 24 h, read-out: Antibacterial activity, MRSA strains with additional resistance, M (moenomycin), MIC class
[13] = test system: Mycobacterium smegmatis (mc(2)155); experiment: Broth microdilution MIC assay, Mycobacterium smegmatis
[14] = test system: vancomycin-resistant Staphylococcus aureus (from MRSA COL); experiment: Broth microdilution MIC assay, vancomycin-resistant MRSA; format: cell-based; conditions: 24 h, read-out: Antibacterial activity, MRSA strains with additional resistance, V (vancomycin), MIC class
[15] = test system: linezolid-resistant Staphylococcus aureus (from MRSA COL); experiment: Broth microdilution MIC assay, linezolid-resistant MRSA; format: cell-based; conditions: 24 h, read-out: Antibacterial activity, MRSA strains with additional resistance, L (linezolid), MIC class

SMILES | MIC [1] | MIC [2] | MIC [3] | MIC [5] | MIC [7] | MIC [8] | MIC [10] | MIC [11] | Antibacterial activity, MS (Mycobacterium smegmatis), MIC class [13] | also measured
Cc1[nH]c(-c2ccc(-c3ccc(Cl)c(C(F)(F)F)c3)o2)nc1-c1ccc(F)cc1 [compound 42] | 20 to 50 µg/mL (≈ 47.5 to 119 µM) | 11 to 20 µg/mL (≈ 26.1 to 47.5 µM) | 11 to 20 µg/mL (≈ 26.1 to 47.5 µM) |  |  |  |  |  |  | MIC [4]: 20 to 50 µg/mL (≈ 47.5 to 119 µM)
Cc1[nH]c(-c2ccc(-c3ccc(OC(F)(F)F)cc3Cl)o2)nc1-c1ccc(F)cc1 [compound 51] |  |  |  | 3 to 10 µg/mL (≈ 6.87 to 22.9 µM) | 1 to 3 µg/mL (≈ 2.29 to 6.87 µM) | 11 to 20 µg/mL (≈ 25.2 to 45.8 µM) |  |  |  | Antibacterial activity Staphylococcus aureus (MSSA) [6]: 2 (MIC100 of 11-20 μg/ml); MIC [6]: 11 to 20 µg/mL (≈ 25.2 to 45.8 µM)
Cc1[nH]c(-c2ccc(-c3ccccc3Cl)o2)nc1-c1ccccc1 [compound 3] |  |  |  |  |  |  | < 1 µg/mL | 11 to 20 µg/mL (≈ 32.9 to 59.7 µM) |  | MIC ([9]; Staphylococcus aureus, MRSA, read-out: Antibacterial activity, MRSA (Staphylococcus aureus MRSA), MIC class): 11 to 20 µg/mL (≈ 32.9 to 59.7 µM)
Cc1nc(-c2ccc(-c3ccc(Cl)c(OC(F)(F)F)c3)o2)[nH]c1-c1ccccc1 [compound 41] | 20 to 50 µg/mL (≈ 47.8 to 119 µM) | 20 to 50 µg/mL (≈ 47.8 to 119 µM) | 20 to 50 µg/mL (≈ 47.8 to 119 µM) |  |  |  |  | 11 to 20 µg/mL (≈ 26.3 to 47.8 µM) |  | 
Cc1[nH]c(-c2ccc(-c3ccc(OC(F)(F)F)cc3)o2)nc1-c1ccc(Cl)cc1 [compound 48] | 20 to 50 µg/mL (≈ 47.8 to 119 µM) | 20 to 50 µg/mL (≈ 47.8 to 119 µM) | 20 to 50 µg/mL (≈ 47.8 to 119 µM) |  |  |  |  | 11 to 20 µg/mL (≈ 26.3 to 47.8 µM) |  | 
Cc1nc(-c2ccc(-c3ccc(Cl)cc3Cl)o2)[nH]c1-c1ccccc1 [compound 1] | 20 to 50 µg/mL (≈ 54.2 to 135 µM) |  |  |  |  | 3 to 10 µg/mL (≈ 8.12 to 27.1 µM) |  |  | 2 (MIC100 of 11-20 μg/ml) | MIC [12]: 3 to 10 µg/mL (≈ 8.12 to 27.1 µM)
Cc1[nH]c(-c2ccc(-c3ccccc3OC(F)(F)F)o2)nc1Cc1ccc(Br)cc1 [compound 30, 4-(4-Bromo-benzyl)-5-methyl-2-[5-(2-trifluoromethoxy-phenyl)-furan-2-yl]-1H-imidazole] | 20 to 50 µg/mL (≈ 41.9 to 105 µM) |  |  | 11 to 20 µg/mL (≈ 23 to 41.9 µM) | 1 to 3 µg/mL (≈ 2.1 to 6.29 µM) | 20 to 50 µg/mL (≈ 41.9 to 105 µM) |  | 11 to 20 µg/mL (≈ 23 to 41.9 µM) |  | 
Cc1[nH]c(-c2ccc(-c3ccccc3OC(F)(F)F)o2)nc1-c1ccc(Cl)cc1 [compound 24] |  | 20 to 50 µg/mL (≈ 47.8 to 119 µM) | 20 to 50 µg/mL (≈ 47.8 to 119 µM) | 1 to 3 µg/mL (≈ 2.39 to 7.16 µM) | 1 to 3 µg/mL (≈ 2.39 to 7.16 µM) | 11 to 20 µg/mL (≈ 26.3 to 47.8 µM) |  |  |  | MIC [14]: 1 to 3 µg/mL (≈ 2.39 to 7.16 µM)
Cc1[nH]c(-c2ccc(-c3ccc(C(F)(F)F)cc3)o2)nc1-c1ccc(Cl)cc1 [compound 47] | 20 to 50 µg/mL (≈ 49.7 to 124 µM) | 20 to 50 µg/mL (≈ 49.7 to 124 µM) | 20 to 50 µg/mL (≈ 49.7 to 124 µM) |  |  |  |  |  | 3 (MIC100 of 3-10 μg/ml) | Antibacterial activity Staphylococcus aureus (MRSA) [9]: 3 (MIC100 of 3-10 μg/ml); MIC [4]: 20 to 50 µg/mL (≈ 49.7 to 124 µM)
Cc1ccccc1-c1c[nH]c(-c2ccc(-c3ccccc3OC(F)(F)F)o2)n1 [compound 66] | 20 to 50 µg/mL (≈ 52 to 130 µM) |  | 20 to 50 µg/mL (≈ 52 to 130 µM) |  | 1 to 3 µg/mL (≈ 2.6 to 7.81 µM) | 11 to 20 µg/mL (≈ 28.6 to 52 µM) | < 1 µg/mL |  | 2 (MIC100 of 11-20 μg/ml) | Antibacterial activity Staphylococcus aureus (MRSA) [9]: 2 (MIC100 of 11-20 μg/ml); MIC [15]: 1 to 3 µg/mL (≈ 2.6 to 7.81 µM); Antibacterial activity Staphylococcus aureus (MSSA) [6]: 3 (MIC100 of 3-10 μg/ml)
Cc1nc(-c2ccc(-c3cccc(OC(F)(F)F)c3)o2)[nH]c1-c1ccccc1 [compound 34] | 20 to 50 µg/mL (≈ 52 to 130 µM) | 20 to 50 µg/mL (≈ 52 to 130 µM) |  | 3 to 10 µg/mL (≈ 7.81 to 26 µM) |  | 11 to 20 µg/mL (≈ 28.6 to 52 µM) | 2 to 5 µg/mL (≈ 5.2 to 13 µM) |  | 2 (MIC100 of 11-20 μg/ml) | MIC [12]: 3 to 10 µg/mL (≈ 7.81 to 26 µM); Antibacterial activity Streptococcus pneumoniae ([10]; MIC class score, MIC100, broth microdilution): 3 (MIC100 of 2-5 μg/ml)
Cc1ccccc1-c1cnc(-c2ccc(-c3ccccc3C(F)(F)F)o2)[nH]1 [compound 69] | 20 to 50 µg/mL (≈ 54.3 to 136 µM) |  |  |  |  |  | < 1 µg/mL |  | 2 (MIC100 of 11-20 μg/ml) | Antibacterial activity Staphylococcus aureus (MRSA) [9]: 2 (MIC100 of 11-20 μg/ml); MIC [6]: 11 to 20 µg/mL (≈ 29.9 to 54.3 µM)
FC(F)(F)Oc1ccccc1-c1ccc(-c2nc(Cl)c(-c3ccccc3)[nH]2)o1 [compound 64] |  |  |  |  | 1 to 3 µg/mL (≈ 2.47 to 7.41 µM) |  | < 1 µg/mL |  |  | MIC [12]: 1 to 3 µg/mL (≈ 2.47 to 7.41 µM); MIC [14]: 1 to 3 µg/mL (≈ 2.47 to 7.41 µM); Antibacterial activity Staphylococcus aureus (MSSA) [6]: 2 (MIC100 of 11-20 μg/ml)
